From the NIST ThermoML archive (doi:10.1016/j.jct.2015.12.031)

Legend:
[1] = mn = molality of the nth substance listed, in mol/kg; conditions: 86.5 kPa, Liquid; for speed of sound: Frequency=3 MHz, Sing-around technique in a fixed-path interferometer; for mass density: Vibrating tube method
[2] = refractive index (Na D-line) (dimensionless); mn = molality of the nth substance listed, in mol/kg; conditions: 86.5 kPa, Liquid, Standard Abbe refractometry

c1ccsc1 [thiophene] + CCCCCCCC
Conditions	mass density, [1] [kg/m3]	refractive index, [2]	speed of sound, [1] [m/s]
288.15 K, m1 = 0.0158	707.297	1.4002	1214.4
288.15 K, m1 = 0.0275	707.523	1.4003	1214.4
288.15 K, m1 = 0.0517	707.987	1.4004	1214.4
288.15 K, m1 = 0.0847	708.616	1.4005	1214.3
288.15 K, m1 = 0.0952	708.817	1.4006	1214.3
288.15 K, m1 = 0.1081	709.062	1.4006	1214.3
288.15 K, m1 = 0.1182	709.253	1.4007	1214.3
288.15 K, m1 = 0.1353	709.577	1.4008	1214.2
288.15 K, m1 = 0.1494	709.844	1.4008	1214.2
288.15 K, m1 = 0.1577	710	1.4009	1214.2
288.15 K, m1 = 0.1729	710.288	1.401	1214.2
288.15 K, m1 = 0.1797	710.414	1.401	1214.2
288.15 K, m1 = 0.1932	710.67	1.4011	1214.2
288.15 K, m1 = 0.2031	710.855	1.4012	1214.1
288.15 K, m1 = 0.3004	712.662	1.4017	1214
288.15 K, m1 = 0.4002	714.496	1.4023	1213.8
288.15 K, m1 = 0.5026	716.351	1.4028	1213.6
288.15 K, m1 = 0.5823	717.77	1.4033	1213.5
293.15 K, m1 = 0.0158	703.296	1.3976	1193.3
293.15 K, m1 = 0.0275	703.52	1.3977	1193.3
293.15 K, m1 = 0.0517	703.981	1.3978	1193.3
293.15 K, m1 = 0.0847	704.605	1.398	1193.2
293.15 K, m1 = 0.0952	704.805	1.3981	1193.2
293.15 K, m1 = 0.1081	705.047	1.3982	1193.2
293.15 K, m1 = 0.1182	705.236	1.3982	1193.2
293.15 K, m1 = 0.1353	705.558	1.3983	1193.2
293.15 K, m1 = 0.1494	705.822	1.3984	1193.2
293.15 K, m1 = 0.1577	705.976	1.3985	1193.2
293.15 K, m1 = 0.1729	706.262	1.3985	1193.2
293.15 K, m1 = 0.1797	706.389	1.3986	1193.1
293.15 K, m1 = 0.1932	706.641	1.3986	1193.1
293.15 K, m1 = 0.2031	706.824	1.3987	1193.1
293.15 K, m1 = 0.3004	708.627	1.3992	1193
293.15 K, m1 = 0.4002	710.432	1.3997	1192.9
293.15 K, m1 = 0.5026	712.275	1.4003	1192.7
293.15 K, m1 = 0.5823	713.683	1.4007	1192.6
298.15 K, m1 = 0.0158	699.223	1.3952	1172.4
298.15 K, m1 = 0.0275	699.447	1.3953	1172.4
298.15 K, m1 = 0.0517	699.907	1.3954	1172.4
298.15 K, m1 = 0.0847	700.53	1.3956	1172.3
298.15 K, m1 = 0.0952	700.728	1.3957	1172.3
298.15 K, m1 = 0.1081	700.97	1.3957	1172.3
298.15 K, m1 = 0.1182	701.159	1.3958	1172.3
298.15 K, m1 = 0.1353	701.48	1.3959	1172.3
298.15 K, m1 = 0.1494	701.743	1.396	1172.3
298.15 K, m1 = 0.1577	701.901	1.3961	1172.3
298.15 K, m1 = 0.1729	702.182	1.3961	1172.3
298.15 K, m1 = 0.1797	702.312	1.3962	1172.2
298.15 K, m1 = 0.1932	702.561	1.3962	1172.2
298.15 K, m1 = 0.2031	702.742	1.3963	1172.2
298.15 K, m1 = 0.3004	704.545	1.3968	1172.1
298.15 K, m1 = 0.4002	706.341	1.3973	1171.9
298.15 K, m1 = 0.5026	708.178	1.3978	1171.8
298.15 K, m1 = 0.5823	709.577	1.3982	1171.6
303.15 K, m1 = 0.0158	695.177	1.3926	1151.5
303.15 K, m1 = 0.0275	695.398	1.3927	1151.5
303.15 K, m1 = 0.0517	695.856	1.3928	1151.4
303.15 K, m1 = 0.0847	696.474	1.393	1151.4
303.15 K, m1 = 0.0952	696.672	1.393	1151.4
303.15 K, m1 = 0.1081	696.912	1.3931	1151.4
303.15 K, m1 = 0.1182	697.101	1.3932	1151.4
303.15 K, m1 = 0.1353	697.419	1.3933	1151.3
303.15 K, m1 = 0.1494	697.682	1.3934	1151.3
303.15 K, m1 = 0.1577	697.834	1.3934	1151.3
303.15 K, m1 = 0.1729	698.118	1.3935	1151.3
303.15 K, m1 = 0.1797	698.244	1.3935	1151.3
303.15 K, m1 = 0.1932	698.492	1.3936	1151.3
303.15 K, m1 = 0.2031	698.675	1.3936	1151.3
303.15 K, m1 = 0.3004	700.46	1.3941	1151.1
303.15 K, m1 = 0.4002	702.25	1.3947	1151
303.15 K, m1 = 0.5026	704.068	1.3953	1150.8
303.15 K, m1 = 0.5823	705.455	1.3957	1150.7
